Assay results published in PMC10879502, “Linking ATP and allosteric sites to achieve superadditive binding with bivalent EGFR kinase inhibitors” (Communications Chemistry, 2024).

Columns and labels:
Assay in all cases: KINOMEscan
Assay type in all cases: binding
Settings in all cases: 1 μM
TLK2 = target: T1, TLK2 (Homo sapiens, UniProt Q86UE8)
T1 construct: purchased Eurofins DiscoverX Corporation

PDGFRB = PDGFRB (Homo sapiens, UniProt P09619)
SRMS = SRMS (Homo sapiens, UniProt Q9H3Y6)
DRAK1 = target: T2, DRAK1 (Homo sapiens, UniProt Q9UEE5)
T2 construct: purchased Eurofins DiscoverX Corporation

MST3 = target: T3, MST3 (Homo sapiens, UniProt Q9Y6E0)
T3 construct: purchased Eurofins DiscoverX Corporation

YANK3 = YANK3 (Homo sapiens, UniProt Q86UX6)
CDK9 = CDK9 (Homo sapiens, UniProt P50750)
CDK9, sequence (P50750 whole entry): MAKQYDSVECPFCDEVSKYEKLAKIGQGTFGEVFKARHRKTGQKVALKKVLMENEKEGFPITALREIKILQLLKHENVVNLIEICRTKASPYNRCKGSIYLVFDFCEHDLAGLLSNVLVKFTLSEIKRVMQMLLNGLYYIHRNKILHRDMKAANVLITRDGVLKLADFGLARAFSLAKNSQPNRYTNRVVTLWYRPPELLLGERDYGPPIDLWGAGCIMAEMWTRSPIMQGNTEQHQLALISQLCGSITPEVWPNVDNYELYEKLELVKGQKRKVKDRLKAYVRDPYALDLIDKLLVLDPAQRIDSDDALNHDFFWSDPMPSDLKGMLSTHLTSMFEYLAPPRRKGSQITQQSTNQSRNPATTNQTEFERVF

ULK2 = ULK2 (Homo sapiens, UniProt Q8IYT8)
STK39 = target: T4, STK39 (Homo sapiens, UniProt Q9UEW8)
T4 construct: purchased Eurofins DiscoverX Corporation

PIP5K2C = PIP5K2C (Homo sapiens, UniProt Q8TBX8)
EPHB4 = EPHB4 (Homo sapiens, UniProt P54760)
EGFR(L747-S752del+P753S) = EGFR(L747-S752del+P753S) (Homo sapiens, UniProt P00533, DEL747-752/P753S)
KIT(V559D+T670I) = target: T5, KIT(V559D+T670I) (Homo sapiens, UniProt P10721, T670I/V559D)
T5 construct: purchased Eurofins DiscoverX Corporation

ERK3 = ERK3 (Homo sapiens, UniProt Q16659)
ERK3, sequence (Q16659 whole entry): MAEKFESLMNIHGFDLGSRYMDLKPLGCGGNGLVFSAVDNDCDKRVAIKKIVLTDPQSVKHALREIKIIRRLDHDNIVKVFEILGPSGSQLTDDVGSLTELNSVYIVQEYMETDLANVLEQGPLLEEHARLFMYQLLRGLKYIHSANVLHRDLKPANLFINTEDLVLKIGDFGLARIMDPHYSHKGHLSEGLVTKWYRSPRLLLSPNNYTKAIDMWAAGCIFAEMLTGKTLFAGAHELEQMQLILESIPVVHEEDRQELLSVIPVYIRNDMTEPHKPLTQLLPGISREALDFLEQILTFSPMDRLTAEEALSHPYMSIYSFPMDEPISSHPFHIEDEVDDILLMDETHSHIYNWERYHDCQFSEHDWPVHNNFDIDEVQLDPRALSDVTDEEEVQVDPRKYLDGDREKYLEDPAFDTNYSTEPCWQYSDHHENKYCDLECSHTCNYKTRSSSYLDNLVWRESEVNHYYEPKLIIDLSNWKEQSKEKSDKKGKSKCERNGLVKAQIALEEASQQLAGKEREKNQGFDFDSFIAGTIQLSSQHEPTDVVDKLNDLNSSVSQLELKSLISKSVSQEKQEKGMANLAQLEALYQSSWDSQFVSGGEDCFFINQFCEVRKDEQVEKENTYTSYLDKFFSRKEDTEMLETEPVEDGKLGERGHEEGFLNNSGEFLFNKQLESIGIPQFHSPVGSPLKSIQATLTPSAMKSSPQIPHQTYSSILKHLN

LATS2 = target: T6, LATS2 (Homo sapiens, UniProt Q9NRM7)
T6 construct: purchased Eurofins DiscoverX Corporation

TNK2 = target: T7, TNK2 (Homo sapiens, UniProt Q07912)
T7 construct: purchased Eurofins DiscoverX Corporation

ERBB3 = ERBB3 (Homo sapiens, UniProt P21860)
RIPK4 = RIPK4 (Homo sapiens, UniProt P57078)
MAP4K5 = target: T8, MAP4K5 (Homo sapiens, UniProt Q9Y4K4)
T8 construct: purchased Eurofins DiscoverX Corporation

CLK2 = CLK2 (Homo sapiens, UniProt P49760)
BTK = target: T9, BTK (Homo sapiens, UniProt Q06187)
T9 construct: purchased Eurofins DiscoverX Corporation (KINOMEscan)

CTK = target: T10, CTK (Homo sapiens, UniProt P42679)
T10 construct: purchased Eurofins DiscoverX Corporation

PFTAIRE2 = PFTAIRE2 (Homo sapiens, UniProt Q96Q40)
AURKC = AURKC (Homo sapiens, UniProt Q9UQB9)
NEK5 = target: T11, NEK5 (Homo sapiens, UniProt Q6P3R8)
T11 construct: purchased Eurofins DiscoverX Corporation

FLT4 = target: T12, FLT4 (Homo sapiens, UniProt P35916)
T12 construct: purchased Eurofins DiscoverX Corporation

AMPK-alpha1 = AMPK-alpha1 (Homo sapiens, UniProt Q13131)
TGFBR1 = target: T13, TGFBR1 (Homo sapiens, UniProt P36897)
T13 construct: purchased Eurofins DiscoverX Corporation

RAF1 = RAF1 (Homo sapiens, UniProt P04049)
CSNK1A1L = target: T14, CSNK1A1L (Homo sapiens, UniProt Q8N752)
T14 construct: purchased Eurofins DiscoverX Corporation

HIPK1 = target: T15, HIPK1 (Homo sapiens, UniProt Q86Z02)
T15 construct: purchased Eurofins DiscoverX Corporation

ERBB2 = ERBB2 (Homo sapiens, UniProt P04626)
DMPK = target: T16, DMPK (Homo sapiens, UniProt Q09013)
T16 construct: purchased Eurofins DiscoverX Corporation

[1] = target: T17, JAK2(JH1domain-catalytic) (Homo sapiens, UniProt O60674)
T17 construct: JAK2(JH1domain-catalytic); purchased Eurofins DiscoverX (KINOMEscan)
T17 sequence (O60674 849-1124 limits assumed): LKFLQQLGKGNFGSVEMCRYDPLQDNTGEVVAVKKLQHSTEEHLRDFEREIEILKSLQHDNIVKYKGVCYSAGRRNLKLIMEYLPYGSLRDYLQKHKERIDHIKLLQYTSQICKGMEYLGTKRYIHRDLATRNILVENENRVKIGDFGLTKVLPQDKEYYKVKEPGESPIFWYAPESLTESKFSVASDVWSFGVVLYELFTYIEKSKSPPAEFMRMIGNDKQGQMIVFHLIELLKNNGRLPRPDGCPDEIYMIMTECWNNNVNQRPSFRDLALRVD

CDK2 = CDK2 (Homo sapiens, UniProt P24941)
MAP3K4 = target: T18, MAP3K4 (Homo sapiens, UniProt Q9Y6R4)
T18 construct: purchased Eurofins DiscoverX Corporation

SIK2 = SIK2 (Homo sapiens, UniProt Q9H0K1)
SIK2, sequence (Q9H0K1 whole entry): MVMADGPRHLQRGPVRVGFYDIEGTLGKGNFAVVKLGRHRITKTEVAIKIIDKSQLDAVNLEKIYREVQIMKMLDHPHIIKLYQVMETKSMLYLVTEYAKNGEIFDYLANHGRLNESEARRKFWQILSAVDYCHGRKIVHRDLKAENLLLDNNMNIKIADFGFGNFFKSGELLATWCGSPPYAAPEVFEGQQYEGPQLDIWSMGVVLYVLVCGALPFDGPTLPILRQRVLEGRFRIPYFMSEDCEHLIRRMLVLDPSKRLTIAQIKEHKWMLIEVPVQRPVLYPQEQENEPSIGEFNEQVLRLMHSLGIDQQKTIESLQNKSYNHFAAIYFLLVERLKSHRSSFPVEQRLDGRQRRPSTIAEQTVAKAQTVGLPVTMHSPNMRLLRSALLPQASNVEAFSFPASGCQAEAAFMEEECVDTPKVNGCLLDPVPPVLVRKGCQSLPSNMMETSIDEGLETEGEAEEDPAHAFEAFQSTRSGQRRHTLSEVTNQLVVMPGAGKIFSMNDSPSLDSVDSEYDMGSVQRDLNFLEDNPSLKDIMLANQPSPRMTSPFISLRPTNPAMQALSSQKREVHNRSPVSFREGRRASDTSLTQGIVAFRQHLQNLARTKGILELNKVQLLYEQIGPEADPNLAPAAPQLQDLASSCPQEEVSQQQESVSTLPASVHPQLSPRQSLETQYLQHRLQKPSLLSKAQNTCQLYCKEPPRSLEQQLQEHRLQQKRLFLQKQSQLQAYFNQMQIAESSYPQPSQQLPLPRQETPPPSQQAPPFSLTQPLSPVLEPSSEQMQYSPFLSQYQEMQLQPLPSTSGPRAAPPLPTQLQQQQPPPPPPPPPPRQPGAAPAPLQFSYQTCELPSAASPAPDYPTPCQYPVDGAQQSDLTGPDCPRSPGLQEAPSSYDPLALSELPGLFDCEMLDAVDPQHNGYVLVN

ERN1 = ERN1 (Homo sapiens, UniProt O75460)
ERN1, sequence (O75460 19-977): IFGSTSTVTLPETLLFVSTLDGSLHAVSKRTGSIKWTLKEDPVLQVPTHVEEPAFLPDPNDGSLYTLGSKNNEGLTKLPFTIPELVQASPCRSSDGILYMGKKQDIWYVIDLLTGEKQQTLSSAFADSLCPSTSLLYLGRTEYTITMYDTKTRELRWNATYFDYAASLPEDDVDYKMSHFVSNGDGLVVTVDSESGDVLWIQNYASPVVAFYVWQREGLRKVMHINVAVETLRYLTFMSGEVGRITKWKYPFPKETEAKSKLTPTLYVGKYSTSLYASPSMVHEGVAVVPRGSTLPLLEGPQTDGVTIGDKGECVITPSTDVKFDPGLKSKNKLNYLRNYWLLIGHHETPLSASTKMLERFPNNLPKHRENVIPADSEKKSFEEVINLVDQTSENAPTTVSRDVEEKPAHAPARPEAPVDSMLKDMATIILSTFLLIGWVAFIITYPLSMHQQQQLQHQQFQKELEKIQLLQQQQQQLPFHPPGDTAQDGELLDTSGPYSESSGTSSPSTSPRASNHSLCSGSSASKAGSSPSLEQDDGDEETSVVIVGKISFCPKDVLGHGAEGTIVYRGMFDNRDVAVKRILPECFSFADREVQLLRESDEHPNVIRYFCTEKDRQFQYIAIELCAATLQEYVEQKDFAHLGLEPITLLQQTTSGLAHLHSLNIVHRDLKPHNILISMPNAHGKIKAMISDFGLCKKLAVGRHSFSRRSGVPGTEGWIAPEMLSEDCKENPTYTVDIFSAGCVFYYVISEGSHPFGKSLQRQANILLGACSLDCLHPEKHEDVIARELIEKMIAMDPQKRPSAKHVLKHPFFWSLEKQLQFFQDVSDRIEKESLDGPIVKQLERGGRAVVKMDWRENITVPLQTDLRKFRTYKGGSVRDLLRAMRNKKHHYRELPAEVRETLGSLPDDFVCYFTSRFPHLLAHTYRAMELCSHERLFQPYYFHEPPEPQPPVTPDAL

[2] = target: RPS6KA4(Kin.Dom.1-N-terminal) (Homo sapiens, UniProt O75676)
DYRK1B = target: T19, DYRK1B (Homo sapiens, UniProt Q9Y463)
T19 construct: purchased Eurofins DiscoverX Corporation
T19 sequence (Q9Y463 whole entry): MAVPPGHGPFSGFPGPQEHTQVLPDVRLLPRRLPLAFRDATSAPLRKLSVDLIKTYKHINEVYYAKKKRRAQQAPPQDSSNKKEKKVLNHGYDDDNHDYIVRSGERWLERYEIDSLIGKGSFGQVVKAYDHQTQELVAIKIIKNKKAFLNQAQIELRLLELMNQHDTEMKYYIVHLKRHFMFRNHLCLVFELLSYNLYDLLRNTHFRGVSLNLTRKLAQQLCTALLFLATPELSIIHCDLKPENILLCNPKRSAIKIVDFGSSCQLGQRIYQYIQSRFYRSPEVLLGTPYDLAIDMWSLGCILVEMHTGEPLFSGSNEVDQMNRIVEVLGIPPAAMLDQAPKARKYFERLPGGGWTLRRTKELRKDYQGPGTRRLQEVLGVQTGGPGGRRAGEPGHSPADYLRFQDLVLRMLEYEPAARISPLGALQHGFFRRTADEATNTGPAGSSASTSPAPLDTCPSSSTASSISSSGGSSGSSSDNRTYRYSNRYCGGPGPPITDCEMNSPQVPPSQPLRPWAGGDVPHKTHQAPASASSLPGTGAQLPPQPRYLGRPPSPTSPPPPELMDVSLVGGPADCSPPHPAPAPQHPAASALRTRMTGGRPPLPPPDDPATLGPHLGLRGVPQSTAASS

PIK3CA(E542K) = PIK3CA(E542K) (Homo sapiens, UniProt P42336, E542K)
EGFR(L858R) = EGFR(L858R) (Homo sapiens, UniProt P00533, L858R)

PDGFRB, sequence (P09619 33-1106): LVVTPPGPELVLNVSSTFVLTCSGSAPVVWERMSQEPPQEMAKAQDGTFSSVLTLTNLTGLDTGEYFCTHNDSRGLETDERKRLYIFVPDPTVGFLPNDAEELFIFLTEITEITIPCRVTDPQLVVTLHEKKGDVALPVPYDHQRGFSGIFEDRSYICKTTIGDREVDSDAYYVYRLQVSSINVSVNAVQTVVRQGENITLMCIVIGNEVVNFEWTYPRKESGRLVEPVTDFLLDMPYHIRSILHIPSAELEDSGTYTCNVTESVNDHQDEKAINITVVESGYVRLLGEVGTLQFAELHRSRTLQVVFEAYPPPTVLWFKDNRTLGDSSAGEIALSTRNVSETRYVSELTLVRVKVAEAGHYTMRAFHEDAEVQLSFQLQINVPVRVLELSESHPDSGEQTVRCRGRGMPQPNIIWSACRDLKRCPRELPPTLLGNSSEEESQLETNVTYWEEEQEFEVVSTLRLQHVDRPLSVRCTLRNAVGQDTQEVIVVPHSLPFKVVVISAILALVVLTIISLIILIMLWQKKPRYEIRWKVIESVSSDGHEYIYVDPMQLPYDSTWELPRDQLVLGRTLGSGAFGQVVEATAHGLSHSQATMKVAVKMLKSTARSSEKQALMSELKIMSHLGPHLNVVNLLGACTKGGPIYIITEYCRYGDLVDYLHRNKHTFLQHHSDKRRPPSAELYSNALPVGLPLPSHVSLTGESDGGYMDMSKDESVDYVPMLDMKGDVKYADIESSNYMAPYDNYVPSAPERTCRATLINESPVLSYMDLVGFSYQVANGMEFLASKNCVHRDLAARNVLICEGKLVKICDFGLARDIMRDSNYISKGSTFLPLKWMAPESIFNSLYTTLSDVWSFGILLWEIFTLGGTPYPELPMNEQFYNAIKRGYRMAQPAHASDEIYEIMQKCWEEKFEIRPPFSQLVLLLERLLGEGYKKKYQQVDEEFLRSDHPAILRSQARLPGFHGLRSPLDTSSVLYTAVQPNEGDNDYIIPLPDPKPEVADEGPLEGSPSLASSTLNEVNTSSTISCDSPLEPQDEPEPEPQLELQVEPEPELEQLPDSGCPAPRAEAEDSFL

C=CC(=O)Nc1ccc(OC)c(Nc2cc(-c3[nH]c(CC)nc3-c3cccc(NC(=O)c4cccc5c4NC(=O)c4ccccc4N5)c3)ccn2)c1 [Compound 4]
POC (TLK2): 87% of control
POC (PDGFRB): 100% of control
POC (SRMS): 61% of control
POC (DRAK1): 84% of control
POC (MST3): 73% of control
POC (YANK3): 96% of control
POC (CDK9): 100% of control
POC (ULK2): 80% of control
POC (STK39): 85% of control
POC (PIP5K2C): 66% of control
POC (EPHB4): 100% of control
POC (EGFR(L747-S752del+P753S)): 16% of control
POC (KIT(V559D+T670I)): 95% of control
POC (ERK3): 100% of control
POC (LATS2): 62% of control
POC (TNK2): 3.8% of control
POC (ERBB3): 84% of control
POC (RIPK4): 100% of control
POC (MAP4K5): 2.5% of control
POC (CLK2): 63% of control
POC (BTK): 54% of control
POC (CTK): 54% of control
POC (PFTAIRE2): 84% of control
POC (AURKC): 100% of control
POC (NEK5): 100% of control
POC (FLT4): 100% of control
POC (AMPK-alpha1): 81% of control
POC (TGFBR1): 75% of control
POC (RAF1): 73% of control
POC (CSNK1A1L): 91% of control
POC (HIPK1): 51% of control
POC (ERBB2): 18% of control
POC (DMPK): 45% of control
POC [1]: 86% of control
POC (CDK2): 95% of control
POC (MAP3K4): 100% of control
POC (SIK2): 100% of control
POC (ERN1): 74% of control
POC [2]: 96% of control
POC (DYRK1B): 88% of control
POC (PIK3CA(E542K)): 100% of control
POC (EGFR(L858R)): 5% of control
